Values of other authors as cited in US20130281718A1, “HIGH-FLUIDITY NON-CAKING DIANHYDROHEXITOL PELLETS” (ROQUETTE FRERES, priority 2010, published 2013).

Conditions: addition of 0.005% by weight of butyl cellulose acetate; pressure of 0.23 bar after forming

- Time without caking: 30 days
SMILES: CC(C)(CO)CO [neopentyl glycol]
